We go through 23 compounds from ChEMBL document CHEMBL5356959, “Bifunctional backbone modified squaramide dipeptides as amyloid beta (Aβ) aggregation inhibitors” (Bioorg Med Chem, 2024).

One data set deals with N2a. The data set can be described thus: Cytotoxicity against mouse Neuro2a cells assessed as reduction in cell viability at 50 uM incubated for 48 hrs by Alamar blue assay. The data set is classed as toxicity, cell-based. A general note: The colour change of resazurin is a common sign of viable cells or microbes.
Data set [1] in a line: Metal chelating activity assessed as compound-Fe(III) complex formation by measuring hyperchromic shift incubated for 30 mins by UV-Visible spectrophotometric analysis.
The nature of data set [2]: Metal chelating activity assessed as compound-Cu(II) complex formation by measuring hyperchromic shift incubated for 30 mins by UV-Visible spectrophotometric analysis.
The nature of data set [3]: Metal chelating activity assessed as compound-Zn(II) complex formation by measuring hyperchromic shift incubated for 30 mins by UV-Visible spectrophotometric analysis.
Data set [4] in a line: Competitive binding affinity to Cu(II) assessed as metal chelating activity by measuring compound-Cu(II) complex formation incubated for 30 mins in the presence of FeCl2 by UV-vis spectrophotometric analysis.
A short description of data set [5]: Competitive binding affinity to Zn(II) assessed as metal chelating activity by measuring compound-Zn(II) complex formation incubated for 30 mins in the presence of CaCl2 by UV-vis spectrophotometric analysis.
A short description of data set [6]: Competitive binding affinity to Zn(II) assessed as metal chelating activity by measuring compound-Zn(II) complex formation incubated for 30 mins in the presence of MnCl2 by UV-vis spectrophotometric analysis.
Data set [7] concerns the target T1, Amyloid-beta precursor protein (Homo sapiens, UniProt P05067). The data set can be described thus: Inhibition of Cu(II)-induced amyloid-beta (unknown origin) aggregation assessed as disaggregation at 10 uM preincubated with CuSO4.5H2O for 30 mins followed by compound addition and measured after 24 hrs by ThT fluorescence assay.
Data set [8] is described as follows: Competitive binding affinity to Cu(II) assessed as metal chelating activity by measuring compound-Cu(II) complex formation incubated for 30 mins in the presence of MnCl2 by UV-vis spectrophotometric analysis.
Data set [9] in a line: Competitive binding affinity to Cu(II) assessed as metal chelating activity by measuring compound-Cu(II) complex formation incubated for 30 mins in the presence of CaCl2 by UV-vis spectrophotometric analysis.
Data set [10] in a line: Competitive binding affinity to Zn(II) assessed as metal chelating activity by measuring compound-Zn(II) complex formation incubated for 30 mins in the presence of copper by UV-vis spectrophotometric analysis.
Data set [11] is described as follows: Competitive binding affinity to Cu(II) assessed as metal chelating activity by measuring compound-Cu(II) complex formation incubated for 30 mins in the presence of ZnSO4.7H2O by UV-vis spectrophotometric analysis.
Data set [12] is described as follows: Metal chelating activity assessed as compound-Cu(II) complex formation by measuring hyperchromic shift at 1:1 molar ratio incubated for 30 mins by UV-Visible spectrophotometric analysis.
A short description of data set [13]: Competitive binding affinity to Zn(II) assessed as metal chelating activity by measuring compound-Zn(II) complex formation incubated for 30 mins in the presence of NiCl2 by UV-vis spectrophotometric analysis.
Data set [14] in a line: Competitive binding affinity to Cu(II) assessed as metal chelating activity by measuring compound-Cu(II) complex formation incubated for 30 mins in the presence of NiCl2 by UV-vis spectrophotometric analysis.
Data set [15] is described as follows: Competitive binding affinity to Zn(II) assessed as metal chelating activity by measuring compound-Zn(II) complex formation incubated for 30 mins in the presence of MgSO4.7H2O by UV-vis spectrophotometric analysis.
Data set [16] in a line: Competitive binding affinity to Zn(II) assessed as metal chelating activity by measuring compound-Zn(II) complex formation incubated for 30 mins in the presence of FeCl2 by UV-vis spectrophotometric analysis.
A short description of data set [17]: Antioxidant activity assessed as DPPH radical scavenging activity at 10 uM incubated under dark condition for 30 mins by absorbance based plate reader analysis. The data set is classed as functional. A general note: Loss of DPPH colour is used to gauge radical scavenging.
In data set [18] the target is T1, Amyloid-beta precursor protein. The data set is described as follows: Inhibition of amyloid-beta (unknown origin) aggregation at 25 uM at 1:10 compound:amyloidbeta ratio incubated for 24 hrs by ThT fluorescence assay.
The target is the same in data set [19]. The data set is described as follows: Inhibition of amyloid-beta (unknown origin) aggregation at 1:10 compound:amyloidbeta ratio incubated for 24 hrs by ThT fluorescence assay.
The nature of data set [20]: Competitive binding affinity to Cu(II) assessed as metal chelating activity by measuring compound-Cu(II) complex formation incubated for 30 mins in the presence of MgSO4.7H2O by UV-vis spectrophotometric analysis.
For data set [21], the target named is T1, Amyloid-beta precursor protein. The data set is described as follows: Binding affinity to amyloid-beta (unknown origin) in Tris-HCL buffer assessed as conformational change at 10 uM at 1:1 molar ratio incubated for 24 hrs by circular dichroism analysis.
A short description of data set [22]: Metal chelating activity assessed as compound-Fe(III) complex formation by measuring hyperchromic shift at 1:1 molar ratio incubated for 30 mins by UV-Visible spectrophotometric analysis.
Data set [23] is described as follows: Competitive binding affinity to Fe(III) assessed as metal chelating activity by measuring compound-Fe(III) complex formation incubated for 30 mins in the presence of NiCl2 by UV-Visible spectrophotometric analysis.
Data set [24] can be described thus: Competitive binding affinity to Fe(III) assessed as metal chelating activity by measuring compound-Fe(III) complex formation incubated for 30 mins in the presence of FeCl2 by UV-Visible spectrophotometric analysis.
Data set [25] can be described thus: Competitive binding affinity to Fe(III) assessed as metal chelating activity by measuring compound-Fe(III) complex formation incubated for 30 mins in the presence of zinc by UV-Visible spectrophotometric analysis.
Data set [26] can be described thus: Metal chelating activity assessed as compound-Zn(II) complex formation by measuring hyperchromic shift at 1:1 molar ratio incubated for 30 mins by UV-Visible spectrophotometric analysis.
Data set [27] can be described thus: Competitive binding affinity to Fe(III) assessed as metal chelating activity by measuring compound-Fe(III) complex formation incubated for 30 mins in the presence of MnCl2 by UV-Visible spectrophotometric analysis.
The nature of data set [28]: Competitive binding affinity to Fe(III) assessed as metal chelating activity by measuring compound-Fe(III) complex formation incubated for 30 mins in the presence of CaCl2 by UV-Visible spectrophotometric analysis.
A short description of data set [29]: Competitive binding affinity to Fe(III) assessed as metal chelating activity by measuring compound-Fe(III) complex formation incubated for 30 mins in the presence of copper by UV-Visible spectrophotometric analysis.
Data set [30] in a line: Competitive binding affinity to Fe(III) assessed as metal chelating activity by measuring compound-Fe(III) complex formation incubated for 30 mins in the presence of MgSO4.7H2O by UV-Visible spectrophotometric analysis.

In general, IC50 refers to the concentration needed to halve the response being measured.

Active and inactive are the calls of the source. No cut-off for these calls is given here.

T1 sequence (P05067 whole entry): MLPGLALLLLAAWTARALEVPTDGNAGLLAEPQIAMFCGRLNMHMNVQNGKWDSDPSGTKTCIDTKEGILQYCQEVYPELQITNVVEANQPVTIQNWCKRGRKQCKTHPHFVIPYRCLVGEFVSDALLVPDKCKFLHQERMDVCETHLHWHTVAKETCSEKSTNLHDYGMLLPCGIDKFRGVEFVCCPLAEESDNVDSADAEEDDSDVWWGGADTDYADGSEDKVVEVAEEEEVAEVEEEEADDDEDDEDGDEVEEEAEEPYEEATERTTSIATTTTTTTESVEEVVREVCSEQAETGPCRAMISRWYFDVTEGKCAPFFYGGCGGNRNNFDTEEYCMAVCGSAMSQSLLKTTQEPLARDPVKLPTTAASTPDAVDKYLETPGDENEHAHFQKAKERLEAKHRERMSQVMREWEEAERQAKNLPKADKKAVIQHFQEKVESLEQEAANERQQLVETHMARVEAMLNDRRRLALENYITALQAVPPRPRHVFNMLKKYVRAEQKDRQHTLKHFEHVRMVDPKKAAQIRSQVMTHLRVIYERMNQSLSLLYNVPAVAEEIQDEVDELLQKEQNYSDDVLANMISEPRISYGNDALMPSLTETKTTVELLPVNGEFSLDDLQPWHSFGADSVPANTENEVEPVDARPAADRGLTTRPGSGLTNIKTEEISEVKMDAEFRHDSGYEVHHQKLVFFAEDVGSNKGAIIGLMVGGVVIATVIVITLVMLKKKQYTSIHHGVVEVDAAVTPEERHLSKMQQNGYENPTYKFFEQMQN

For the compound `CC(C)(C)OC(=O)N[C@H](CNc1c(N[C@@H](CS)C(=O)O)c(=O)c1=O)Cc1ccccc1`, the Activity result in the data set on N2a was “Non-Toxic”.
With `C[C@H](Nc1c(NC[C@H](Cc2ccccc2)NC(=O)OC(C)(C)C)c(=O)c1=O)C(=O)O`, in the data set on N2a, the Activity entry is listed as “Non-Toxic”.
For `COc1c(NC[C@H](Cc2ccccc2)NC(=O)OC(C)(C)C)c(=O)c1=O`, the result in [1], in data set [2] and in data set [3] was Active.
Turning to `CC(C)(C)OC(=O)N[C@H](CNc1c(N[C@@H](CC(=O)O)C(=O)O)c(=O)c1=O)Cc1ccccc1`, in the data set on N2a, the Activity entry is “Non-Toxic”.
As to `CC(C)(C)OC(=O)N[C@H](CNc1c(N[C@@H](CCC(=O)O)C(=O)O)c(=O)c1=O)Cc1ccccc1`, in the data set with N2a, the Activity entry is “Non-Toxic”.
For the compound `COc1c(OC)c(=O)c1=O`, the outcome in [1], in data set [2] and in data set [3] was Active.
As for `CC(C)(C)OC(=O)N[C@H](CNc1c(N2CCC[C@H]2C(=O)O)c(=O)c1=O)Cc1ccccc1`, the Activity result in the data set with N2a is listed as “Non-Toxic”.
Same read-out and setting: as for `CC(C)(C)OC(=O)N[C@H](CNc1c(N[C@@H](Cc2c[nH]cn2)C(=O)O)c(=O)c1=O)Cc1ccccc1`, the entry is “Non-Toxic”.
For the compound `CC(C)C[C@H](Nc1c(NC[C@H](Cc2ccccc2)NC(=O)OC(C)(C)C)c(=O)c1=O)C(=O)O`, the Activity entry in the data set on N2a is recorded as “Non-Toxic”.
Take `CSCC[C@H](Nc1c(NC[C@H](Cc2ccccc2)NC(=O)OC(C)(C)C)c(=O)c1=O)C(=O)O`: the Activity entry in the data set on N2a is listed as “Non-Toxic”.
As for `CC(C)(C)OC(=O)N[C@H](CNc1c(N[C@@H](Cc2c[nH]c3ccccc23)C(=O)O)c(=O)c1=O)Cc1ccccc1`, the Activity entry in the data set with N2a was “Non-Toxic”.
Still for that read-out and setting: as for `CC(C)(C)OC(=O)N[C@H](CNc1c(N[C@@H](Cc2ccc(O)cc2)C(=O)O)c(=O)c1=O)Cc1ccccc1`, the entry is “Non-Toxic”.
Consider `CC(C)[C@H](Nc1c(NC[C@H](Cc2ccccc2)NC(=O)OC(C)(C)C)c(=O)c1=O)C(=O)O`, for which the outcome in data set [4], in data set [8], in [9], in data set [11], in [12] and in data set [14] was inactive. In data set [20], the outcome was inactive. Also, the result in [5], in data set [6], in data set [10], in data set [13], in [15] and in data set [16] was Active. The result in data set [17] was Active. Also, the Activity result in the data set on N2a is “Non-Toxic”. For the same compound, the inhibition result in data set [7] and in data set [18] was “Active” throughout. Besides, in data set [19], the IC50 stood at 7.71 µM.
As to `CC[C@@H](C)[C@H](Nc1c(NC[C@H](Cc2ccccc2)NC(=O)OC(C)(C)C)c(=O)c1=O)C(=O)O`, the Activity result in the data set on N2a is listed as “Non-Toxic”.
As for `CC(C)(C)OC(=O)N[C@H](CN)Cc1ccccc1`, the result in data set [1], in data set [2] and in data set [3] was inactive.
`C[C@H](O)[C@H](Nc1c(NC[C@H](Cc2ccccc2)NC(=O)OC(C)(C)C)c(=O)c1=O)C(=O)O`: the result in data set [21], in data set [4], in data set [22], in data set [23], in data set [5] and in data set [24] was Active. The outcome in data set [25], in [6], in [8], in [26], in data set [27] and in [9] was Active. The outcome in data set [10], in [11], in [12], in data set [13], in data set [28] and in [14] was Active. In addition, the result in data set [15], in data set [29], in data set [16], in [17], in [30] and in data set [20] was Active. For the same compound, in the data set with N2a, the Activity result is “Non-Toxic”. Besides, the inhibition entry in data set [7] and in data set [18] was “Active” each time. For the same compound, the IC50 in [19] turned out to be 8.08 µM.
For `CC(C)(C)OC(=O)N[C@H](CNc1c(N[C@@H](CCCCN)C(=O)O)c(=O)c1=O)Cc1ccccc1`, the Activity result in the data set on N2a is “Non-Toxic”.
On to `CC(C)(C)OC(=O)N[C@H](CNc1c(N[C@@H](CCC(N)=O)C(=O)O)c(=O)c1=O)Cc1ccccc1`, for which the Activity result in the data set on N2a is “Non-Toxic”.
The same measure, in the same setting: as for `CC(C)(C)OC(=O)N[C@H](CNc1c(NCC(=O)O)c(=O)c1=O)Cc1ccccc1`, the entry is “Non-Toxic”; as for `CC(C)(C)OC(=O)N[C@H](CNc1c(N[C@@H](CCCNC(=N)N)C(=O)O)c(=O)c1=O)Cc1ccccc1`, “Non-Toxic”; as for `CC(C)(C)OC(=O)N[C@H](CNc1c(N[C@@H](CO)C(=O)O)c(=O)c1=O)Cc1ccccc1`, “Non-Toxic”.
As to `CC(C)(C)OC(=O)N[C@H](CNc1c(N[C@@H](Cc2ccccc2)C(=O)O)c(=O)c1=O)Cc1ccccc1`, in the data set on N2a, the Activity entry was “Non-Toxic”. Moreover, the inhibition result in [18] was “Active”. Moreover, the IC50 in data set [19] is 14.6 µM.
Taken in the same sequence, the figures for `CC(C)(C)OC(=O)N[C@H](CNc1c(N[C@@H](CC(N)=O)C(=O)O)c(=O)c1=O)Cc1ccccc1` were “Non-Toxic”, “Active” and 17.5 µM.
